According to patent US20110257177A1, “BENZYLTHIOTETRAZOLE INHIBITORS OF STORE OPERATED CALCIUM RELEASE” (CalciMedica, Inc., priority 2008, published 2011):

Tested on: JR^251 or RBL cells
Assay: Fluorescence-based assay of store-operated calcium entry, IC50 in either JR^251 or RBL cells, or both
Assay type: cell-based
Protocol: B. Fluorescence-based Assay of Store-Operated Calcium Entry in RBL-2H3Cells.
RBL-2H3 cells are obtained from ATCC and maintained in complete medium with 10% FBS at 37° C./6% CO2.
The day prior to performing the assay, RBL-2H3 cells are plated in 50 μL of complete medium in a 384 well plate. Cells are grown at 37° C./6% CO2 overnight and grow to 50-60% confluence by the next day. On the assay day, 1.5 μM Fluo-4-AM dye (Invitrogen) in complete medium is added and incubated for 1 hour at RT. Cells are washed twice in Ca^2+-free HBSS buffer and 35 μL Ca^2+-free HBSS buffer is added to each well. 10 μL of a test compound prepared in a Ca^2+-free HBSS solution at 4.5× of the desired concentration is added to a well and incubated for 5 minutes at RT. 10 μL of thapsigargin prepared in a Ca^2+-free HBSS solution at 5.5× of the desired concentration (5.5 uM) is added to each well and incubated for an additional 25 minutes. The initial baseline fluorescence signal is measured with a FLIPR^384 (Molecular Devices) plate reader. 5 μL of 12× calcium in HBSS (12 mM) is added and changes in cellular fluorescence are measured with the FLIPR^384 plate reader. In each well, the change in the fluorescent signal as a function of time due to calcium entry into the cell is determined by calculating the difference between the fluorescent signal measured 7 seconds after calcium addition and the initial baseline fluorescence signal at time zero (t=0). This parameter is designated Upslope. The IC50 value is calculated as the concentration at which 50% of the Upslope is inhibited.
C. Fluorescence-based Assay of Store-Operated Calcium Entry in Jurkat Cells.
Jurkat E6-1 cells were obtained from ATCC and maintained in complete medium with 10% FBS at 37° C./6% CO2.
The day prior to performing the assay, Jurkat E6-1 cells are seeded at a density of 2 million cells/mL in complete medium in a T-175 flask. Cells are grown at 37° C./6% CO2 overnight. On the following day, 1.5 μM Fluo-4-AM dye (Invitrogen) in complete medium is added and incubated for 1 hour at RT. Cells are harvested, washed twice in Ca^2+-free HBSS buffer and plated in 35 μL Ca^2+-free HBSS buffer in a 384 well plate. 10 μL of a test compound prepared in a Ca^2+-free HBSS solution at 4.5× of the desired concentration is added to a well and incubated for 5 minutes at RT. 10 μL of thapsigargin prepared in a Ca^2+-free HBSS solution at 5.5× of the desired concentration (5.5 uM) is added to each well and incubated for an additional 25 minutes. The initial baseline fluorescence signal is measured with a FLIPR^384 (Molecular Devices) plate reader. 5 μL of 12× calcium in HBSS (12 mM) is added and changes in cellular fluorescence are measured with the FLIPR^384 plate reader. In each well, the change in the fluorescent signal as a function of time due to calcium entry into the cell is determined by calculating the difference between the fluorescent signal measured 7 seconds after calcium addition and the initial baseline fluorescence signal at time zero (t=0). This parameter is designated Upslope. The IC50 value is calculated as the concentration at which 50% of the Upslope is inhibited.

SMILES	IC50 [µM]
Cc1ccccc1CSc1nnnn1-c1cccc(C)c1C [1-(2,3-dimethylphenyl)-5-(2-methylbenzylthio)-1H-tetrazole]	< 10
COc1ccc(CSc2nnnn2-c2ccc(C)cc2C)cc1F [1-(2,4-dimethylphenyl)-5-(3-fluoro-4-methoxybenzylthio)-1H-tetrazole]	< 10
COc1cccc(CSc2nnnn2-c2ccc(C)cc2C)c1 [1-(2,4-dimethylphenyl)-5-(3-methoxybenzylthio)-1H-tetrazole]	< 10
Cc1ccc(C)c(-n2nnnc2SC(F)(F)c2c(F)c(F)c(F)c(F)c2F)c1 [1-(2,5-dimethylphenyl)-5-(perfluorobenzylthio)-1H-tetrazole]	< 10
CCOc1ccc(C(C)=O)cc1CSc1nnnn1-c1cc(C)ccc1C [1-(3-((1-(2,5-dimethylphenyl)-1H-tetrazol-5-ylthio)methyl)-4-ethoxyphenyl)ethanone]	< 10
Cc1ccc(C)c(-n2nnnc2SCc2ccccc2Br)c1 [5-(2-bromobenzylthio)-1-(2,5-dimethylphenyl)-1H-tetrazole]	< 10
